Our source for the EC50 values is patent US20240400591A1 (Jacobio Pharmaceuticals Co., Ltd., priority 2021, published 2024).

For this assay, the target named is T1, His-p53 Y220C (94-294) protein (Homo sapiens, UniProt P04637, Y220C).
T1 construct: His-p53 Y220C (94-294) protein
Kind of assay: In vitro DNA binding assay (HTRF). It counts as biochemical. To be noted: % activation normalized to 2 μM Ref-1a high control.

Molecules are shown by their SMILES.

The compound `CN1CCC(Nc2cccc3c(CC(F)(F)F)c(C#CCNc4ccc(S(C)(=O)=O)c5cc[nH]c45)sc23)CC1` [Example 31, N-(3-(7-((1-methylpiperidin-4-yl)amino)-3-(2,2,2-trifluoroethyl)benzo[b]thiophen-2-yl)prop-2-yn-1-yl)-4-(methylsulfonyl)-1H-indol-7-amine] came in with a concentration for a half-maximal effect (EC50) of 0.535 µM.

The compound `COc1cc(S(C)(=O)=O)ccc1NCC#Cc1sc2c(NC3CC4(CCN(C)CC4)C3)cccc2c1CC(F)(F)F` [Example 33, N-(2-(3-((2-methoxy-4-(methylsulfonyl)phenyl)amino)prop-1-yn-1-yl)-3-(2,2,2-trifluoroethyl)benzo[b]thiophen-7-yl)-7-methyl-7-azaspiro[3.5]nonan-2-amine] returned an EC50 of 0.621 µM.

As to `CCP(=O)(CC)c1ccc(NCC#Cc2sc3c(NC4CCN(C)CC4F)cccc3c2CC(F)(F)F)c(OC)c1` (centres unmarked) [Example 35, diethyl(4-((3-(7-(((Z)-3-fluoro-1-methylpiperidin-4-yl)amino)-3-(2,2,2-trifluoroethyl)benzo[b]thiophen-2-yl)prop-2-yn-1-yl)amino)-3-methoxyphenyl)phosphine oxide], the EC50 was 0.038 µM.

`COc1cc(S(C)(=O)=O)ccc1NCC#Cc1sc2c(NC3CCN(CCF)CC3)cccc2c1CC(F)(F)F` [Example 36, 1-(2-fluoroethyl)-N-(2-(3-((2-methoxy-4-(methylsulfonyl)phenyl)amino)prop-1-yn-1-yl)-3-(2,2,2-trifluoroethyl)benzo[b]thiophen-7-yl)piperidin-4-amine] yielded an EC50 of 0.305 µM.

For `COc1cc(S(C)(=O)=O)ccc1NCC#Cc1sc2c(NC3CCN(CC(F)(F)F)CC3)cccc2c1CC(F)(F)F` [Example 37, N-(2-(3-((2-methoxy-4-(methylsulfonyl)phenyl)amino)prop-1-yn-1-yl)-3-(2,2,2-trifluoroethyl)benzo[b]thiophen-7-yl)-1-(2,2,2-trifluoroethyl)piperidin-4-amine], the EC50 is 3.88 µM.

`COc1cc(S(C)(=O)=O)ccc1NCC#Cc1sc2c(NC3CCNCC3)cccc2c1CC(F)(F)F` [Example 38, N-(2-(3-((2-methoxy-4-(methylsulfonyl)phenyl)amino)prop-1-yn-1-yl)-3-(2,2,2-trifluoroethyl)benzo[b]thiophen-7-yl)piperidin-4-amine]: the response was half-maximal at 0.194 µM (EC50).

`COc1cc(S(C)(=O)=O)ccc1NCC#Cc1cc2c(N[C@H]3CC[C@@H](N4CC5(COC5)C4)CC3)cccc2n1CC(F)(F)F` [Example 39, Cis-N-(4-(2-oxa-6-azaspiro[3.3]heptan-6-yl)cyclohexyl)-2-(3-((2-methoxy-4-(methylsulfonyl)phenyl)amino)prop-1-yn-1-yl)-1-(2,2,2-trifluoroethyl)-1H-indol-4-amine] had an EC50 of 0.157 µM.

`COc1cc(S(N)(=O)=O)ccc1NCC#Cc1sc2c(NC3CCN(C)CC3F)cccc2c1CC(F)(F)F` (centres unmarked) [Example 40, 4-((3-(7-(((Z)-3-fluoro-1-methylpiperidin-4-yl)amino)-3-(2,2,2-trifluoroethyl)benzo[b]thiophen-2-yl)prop-2-yn-1-yl)amino)-3-methoxybenzenesulfonamide] yielded an EC50 of 0.06 µM.

In turn, `COc1cc(S(C)(=O)=O)ccc1NCC#Cc1sc2c(N(C)C3CCN(C)CC3F)cccc2c1CC(F)(F)F` (centres unmarked) [Example 42, (Z)-3-fluoro-N-(2-(3-((2-methoxy-4-(methylsulfonyl)phenyl)amino)prop-1-yn-1-yl)-3-(2,2,2-trifluoroethyl)benzo[b]thiophen-7-yl)-N,1-dimethylpiperidin-4-amine] displayed an EC50 of 0.654 µM.

For the compound `COc1cc(P(C)(C)=O)ccc1NCC#Cc1sc2c(NC3CCN(C)CC3(F)F)cccc2c1CC(F)(F)F` (centres unmarked) [Example 43, (4-((3-(7-((3,3-difluoro-1-methylpiperidin-4-yl)amino)-3-(2,2,2-trifluoroethyl)benzo[b]thiophen-2-yl)prop-2-yn-1-yl)amino)-3-methoxyphenyl)dimethylphosphine oxide], the EC50 is 0.39 µM.

`C[C@H](C#Cc1sc2c(NC3CCN(C)CC3)cccc2c1CC(F)(F)F)Nc1ccc(S(N)(=O)=O)cc1` [Example 44, (R)-4-((4-(7-((1-methylpiperidin-4-yl)amino)-3-(2,2,2-trifluoroethyl)benzo[b]thiophen-2-yl)but-3-yn-2-yl)amino)benzenesulfonamide] yielded an EC50 of 2.91 µM.

Consider `C[C@@H](C#Cc1sc2c(NC3CCN(C)CC3)cccc2c1CC(F)(F)F)Nc1ccc(S(N)(=O)=O)cc1` [Example 45, (S)-4-((4-(7-((1-methylpiperidin-4-yl)amino)-3-(2,2,2-trifluoroethyl)benzo[b]thiophen-2-yl)but-3-yn-2-yl)amino)benzenesulfonamide], for which the EC50 was 2.79 µM.

In turn, `COc1cc(C(=O)N2CCN(C)CC2)ccc1NCC#Cc1sc2c(NC3CCN(C)CC3F)cccc2c1CC(F)(F)F` (centres unmarked) [Example 49, (4-((3-(7-(((Z)-3-fluoro-1-methylpiperidin-4-yl)amino)-3-(2,2,2-trifluoroethyl)benzo[b]thiophen-2-yl)prop-2-yn-1-yl)amino)-3-methoxyphenyl)(4-methylpiperazin-1-yl)methanone] had an EC50 of 0.038 µM.

Turning to `COc1cc(C(=O)N2CCOCC2)ccc1NCC#Cc1sc2c(NC3CCN(C)CC3F)cccc2c1CC(F)(F)F` (centres unmarked) [Example 50, (4-((3-(7-(((Z)-3-fluoro-1-methylpiperidin-4-yl)amino)-3-(2,2,2-trifluoroethyl)benzo[b]thiophen-2-yl)prop-2-yn-1-yl)amino)-3-methoxyphenyl)(morpholino)methanone], a half-maximal effect (EC50) was put at 0.086 µM.

In the case of `COc1cc(S(C)(=O)=O)ccc1NCC#Cc1sc2c(NC3CCN(C)CC3)ccc(F)c2c1CC(F)(F)F` [Example 51, N-(4-fluoro-2-(3-((2-methoxy-4-(methylsulfonyl)phenyl)amino)prop-1-yn-1-yl)-3-(2,2,2-trifluoroethyl)benzo[b]thiophen-7-yl)-1-methylpiperidin-4-amine], the EC50 was determined as 0.479 µM.

`COc1cc(P(C)(C)=O)ccc1NCC#Cc1sc2c(NCC34CCCN3CCC4)cccc2c1CC(F)(F)F` [Example 54, (3-methoxy-4-((3-(7-(((tetrahydro-1H-pyrrolizin-7a(5H)-yl)methyl)amino)-3-(2,2,2-trifluoroethyl)benzo[b]thiophen-2-yl)prop-2-yn-1-yl)amino)phenyl)dimethylphosphine oxide] registered an EC50 of 0.224 µM.

As to `COc1cc(S(C)(=O)=O)ccc1NCC#Cc1sc2c(NC3CCCN(C)CC3)cccc2c1CC(F)(F)F` (centres unmarked) [Example 55, N-(2-(3-((2-methoxy-4-(methylsulfonyl)phenyl)amino)prop-1-yn-1-yl)-3-(2,2,2-trifluoroethyl)benzo[b]thiophen-7-yl)-1-methylazepan-4-amine], the EC50 came out at 0.122 µM.

Regarding `COc1cc(S(C)(=O)=O)ccc1NCC#Cc1sc2c(NCC3CCN(C)CC3)cccc2c1CC(F)(F)F` [Example 56, 2-(3-((2-methoxy-4-(methylsulfonyl)phenyl)amino)prop-1-yn-1-yl)-N-((1-methylpiperidin-4-yl)methyl)-3-(2,2,2-trifluoroethyl)benzo[b]thiophen-7-amine], the midpoint of the response, the EC50, lay at 0.284 µM.

The compound `COc1cc(C(=O)NO)ccc1NCC#Cc1sc2c(NC3CCN(C)CC3F)cccc2c1CC(F)(F)F` (centres unmarked) [Example 58, 4-((3-(7-(((Z)-3-fluoro-1-methylpiperidin-4-yl)amino)-3-(2,2,2-trifluoroethyl)benzo[b]thiophen-2-yl)prop-2-yn-1-yl)amino)-N-hydroxy-3-methoxybenzamide] gave an EC50 of 0.09 µM.

As for `COc1nc(C(N)=O)ccc1NCC#Cc1sc2c(NC3CCN(C)CC3F)cccc2c1CC(F)(F)F` (centres unmarked) [Example 63, 5-((3-(7-(((Z)-3-fluoro-1-methylpiperidin-4-yl)amino)-3-(2,2,2-trifluoroethyl)benzo[b]thiophen-2-yl)prop-2-yn-1-yl)amino)-6-methoxypicolinamide], the EC50 came to 0.22 µM.

`COc1cc(P(C)(C)=O)ccc1NCC#Cc1sc2c(NC[C@@]34CCCN3C[C@H](F)C4)cccc2c1CC(F)(F)F` [Example 70, (4-((3-(7-((((2R,7aS)-2-fluorotetrahydro-1H-pyrrolizin-7a(5H)-yl)methyl)amino)-3-(2,2,2-trifluoroethyl)benzo[b]thiophen-2-yl)prop-2-yn-1-yl)amino)-3-methoxyphenyl)dimethylphosphine oxide] gave an EC50 of 0.229 µM.

`COc1cc(P(C)(C)=O)ccc1NCC#Cc1sc2c(NC3CCN(C)CC3)ccnc2c1CC(F)(F)F` [Example 71, (3-methoxy-4-((3-(7-((1-methylpiperidin-4-yl)amino)-3-(2,2,2-trifluoroethyl)thieno[3,2-b]pyridin-2-yl)prop-2-yn-1-yl)amino)phenyl)dimethylphosphine oxide] had a concentration giving a half-maximal response (EC50) of 1.03 µM.

Compound `COc1cc(S(C)(=O)=O)ccc1NCC#Cc1sc2c(NC3C4CNCC3CNC4)cccc2c1CC(F)(F)F` (centres unmarked) [Example 78, N-(2-(3-((2-methoxy-4-(methylsulfonyl)phenyl)amino)prop-1-yn-1-yl)-3-(2,2,2-trifluoroethyl)benzo[b]thiophen-7-yl)-3,7-diazabicyclo[3.3.1]nonan-9-amine] gave an EC50 of 0.134 µM.

As for `COc1cc(P(C)(C)=O)ccc1NCC#Cc1sc2c(NC3CCN(C)CC3C#N)cccc2c1CC(F)(F)F` (centres unmarked) [Example 90, 4-((2-(3-((4-(dimethylphosphoryl)-2-methoxyphenyl)amino)prop-1-yn-1-yl)-3-(2,2,2-trifluoroethyl)benzo[b]thiophen-7-yl)amino)-1-methylpiperidine-3-carbonitrile], the EC50 was 0.272 µM.

As for `COc1cc(P(C)(C)=O)ccc1NCC#Cc1sc2c(NC3CCN(C)CC3F)cccc2c1-c1cncs1` (centres unmarked) [Example 116, (4-((3-(7-(((Z)-3-fluoro-1-methylpiperidin-4-yl)amino)-3-(thiazol-5-yl)benzo[b]thiophen-2-yl)prop-2-yn-1-yl)amino)-3-methoxyphenyl)dimethylphosphine oxide], the EC50 is 5.13 µM.

`COc1cc(P(C)(C)=O)ccc1NCC#Cc1sc2c(NC3CCN(C)CC3F)cccc2c1CC#N` (centres unmarked) [Example 133, 2-(2-(3-((4-(dimethylphosphoryl)-2-methoxyphenyl)amino)prop-1-yn-1-yl)-7-(((E)-3-fluoro-1-methylpiperidin-4-yl)amino)benzo[b]thiophen-3-yl)acetonitrile] registered an EC50 of 0.311 µM.
